Literature values, collected in patent publication US20240382500A1, “DOPAMINE RECEPTOR AGONISTS OR ANGIOTENSIN RECEPTOR BLOCKERS OR COMBINATIONS THEREOF FOR COVID-19 SEQUELAE” (priority 2023, published 2024).

Experiments:
[1] = tested on: natural killer cells (NKCs)
[2] = 250 mg/day, characterized as a low dose
[3] = in vivo
[4] = dosages up to 15 mg/day, subjects with early-stage Parkinson's disease

**Q.** Which “tolerability in preclinical studies” value does the source give for `Oc1cc2c(cc1O)C(c1ccccc1)CNCC2` (centres unmarked) [SKF38393] here?
**A.** well tolerated

**Q.** What about the NKC cytotoxicity [1] of the same compound?
**A.** augments

**Q.** What about the “clinical benefit in schizophrenia” value [2] of the same compound?
**A.** failed to show a clinical benefit

**Q.** For `CCOc1nc2cccc(C(=O)O)c2n1Cc1ccc(-c2ccccc2-c2nn[nH]n2)cc1` [Candesartan], which “action of ANG II on ICAM-1” value (ICAM-1) is on record?
**A.** inhibit

**Q.** What about the HMGB1 (HMGB1) of the same compound?
**A.** lower

**Q.** And the microglial phagocytosis (microglia)?
**A.** strengthens

**Q.** Which “safety and tolerability in human subjects” value [3] does the source give for `Cc1cc(Oc2ncccc2C(F)(F)F)ccc1-c1c(C)c(=O)[nH]c(=O)n1C` [PF-06649751] here?
**A.** safe and well tolerated

**Q.** What about the motor symptoms [4] of the same compound?
**A.** significant improvement
